Values of other authors in PubChem BioAssay AID1259409 (Chemical Carcinogenesis Research Information System (CCRIS), 2018).

Tested on: rodent chemically induced tumor inhibition, incidence and multiplicity
Experiment: CCRIS tumor inhibitor studies

O=C(CBr)c1ccc(Br)cc1
tumour outcome (control, treated, inhibition, significance) (Carcinogen: 7,12-DIMETHYLBENZ[A]ANTHRACENE, 57-97-6, Dose [Inhibitor]: 10 UMOL APPLIED 30-40 MIN BEFORE EACH TPA TREATMENT AND CONCURRENTLY WITH TPA (STUDY DURATION: 18 WK), Route [Inhibitor]: DERMAL, Species: MOUSE, Strain/Sex: CD-1/FEMALE, Target Tissue: Type of Lesion: SKIN: PAPILLOMA, Dose [Carcinogen]: 200 NMOL ONCE, Promoter: 12-O-TETRADECANOYLPHORBOL-13-ACETATE, 16561-29-8): 96%, 57%, 41%, not calculated | tumour outcome (control, treated, inhibition, significance) (Carcinogen: N-NITROSODIETHYLAMINE, 55-18-5, 2-ACETYLAMINOFLUORENE, 53-93-6, CARBON TETRACHLORIDE, 56-23-5, Carcinogen: N-NITROSODIETHYLAMINE, 55-18-5, 2-ACETYLAMINOFLUORENE, 53-93-6, CARBON TETRACHLORIDE, 56-23-5, Dose [Inhibitor]: 0, 0.75% IN DIET FOR 29 WK ADMINISTERED TO RATS BEARING PERSISTENT NODULES FOLLOWING CARCINOGEN TREATMENT (STUDY DURATIO, Route [Inhibitor]: ORAL, Species: RAT, Strain/Sex: F344/MALE, Target Tissue: Type of Lesion: LIVER: HEPATOCELLULAR CARCINOMA, Dose [Carcinogen]: 200 MG/KG BW DEN ONCE, 0.002% 2-AAF IN DIET FOR 2 WK, 1 MG/KG BW CCL4 MIDWAY IN 2-AAF TREATMENT, Dose [Carcinogen]: 200 MG/KG BW DEN ONCE, 0.002% 2-AAF IN DIET FOR 2 WK, 1 MG/KG BW CCL4 MIDWAY IN 2-AAF TREATMENT, Promoter: NONE USED): 7/8 (88%), 11/11 (100%), -12%, not significant | tumour outcome (control, treated, inhibition, significance) (Carcinogen: N-NITROSODIETHYLAMINE, 55-18-5, 2-ACETYLAMINOFLUORENE, 53-93-6, CARBON TETRACHLORIDE, 56-23-5, Carcinogen: N-NITROSODIETHYLAMINE, 55-18-5, 2-ACETYLAMINOFLUORENE, 53-93-6, CARBON TETRACHLORIDE, 56-23-5, Dose [Inhibitor]: 0, 0.75% IN DIET FOR 29 WK ADMINISTERED TO RATS BEARING PERSISTENT NODULES FOLLOWING CARCINOGEN TREATMENT (STUDY DURATIO, Route [Inhibitor]: ORAL, Species: RAT, Strain/Sex: F344/MALE, Target Tissue: Type of Lesion: LIVER: HEPATOCELLULAR CARCINOMA, Dose [Carcinogen]: 200 MG/KG BW DEN ONCE, 0.002% 2-AAF IN DIET FOR 2 WK, 1 ML/KG BW CCL4 MIDWAY IN 2-AAF TREATMENT, Dose [Carcinogen]: 200 MG/KG BW DEN ONCE, 0.002% 2-AAF IN DIET FOR 2 WK, 1 ML/KG BW CCL4 MIDWAY IN 2-AAF TREATMENT, Promoter: PHENOBARBITAL, 50-06-6): 12/12 (100%), 13/14 (93%), 7%, not significant

CC(C)[C@@H]1CC[C@@H](C)C[C@H]1O
tumour outcome (control, treated, inhibition, significance) (Carcinogen: AZOXYMETHANE, 25843-45-2, Dose [Inhibitor]: 0, 5 MG/G IN DIET FOR 22 WK BEGINNING 3 D POST LAST CARCINOGEN DOSE (STUDY DURATION: 25 WK), Route [Inhibitor]: ORAL, Species: RAT, Strain/Sex: F344/MALE, Target Tissue: Type of Lesion: DUODENUM: ADENOCARCINOMA, Dose [Carcinogen]: 15 MG/KG BW 2/WK FOR 3 WK, Promoter: NONE USED): 50%, 42%, 16%, not significant | tumour outcome (control, treated, inhibition, significance) (Carcinogen: AZOXYMETHANE, 25843-45-2, Dose [Inhibitor]: 0, 5 MG/G IN DIET FOR 22 WK BEGINNING 3 D POST LAST CARCINOGEN DOSE (STUDY DURATION: 25 WK), Route [Inhibitor]: ORAL, Species: RAT, Strain/Sex: F344/MALE, Target Tissue: Type of Lesion: LARGE BOWEL: ADENOMATOUS POLYP, Dose [Carcinogen]: 15 MG/KG BW 2/WK FOR 3 WK, Promoter: NONE USED): 82%, 88%, -7%, not significant

Cc1cnc(NC(=O)C2=C(O)c3ccccc3S(=O)(=O)N2C)s1
tumour outcome (control, treated, inhibition, significance) (Carcinogen: N-NITROSOBIS(2-OXOPROPYL)AMINE [60599-38-4], Dose [Inhibitor]: 5 MG/KG EACH WEEKDAY OVER A PERIOD OF 16 WKS STARTING AT 4 WKS (STUDY DURATION: 20 WKS), Route [Inhibitor]: ORAL (GAVAGE?), Species: HAMSTER, Strain/Sex: SYRIAN GOLDEN/FEMALE, Target Tissue: Type of Lesion: GALL BLADDER: CARCINOMA IN SITU, Dose [Carcinogen]: 10 MG/KG BW AT WKS 4, 6, 8, 10, 12, 14, 16, 18 (8 DOSES) (STUDY DURATION: 20 WKS)): 4/11 (36%), 0/11 (0%), 100%, not significant

CC1=C(/C=C/C(C)=C/C=C/C(C)=C/C(=O)Nc2ccc(O[C@@H]3O[C@H](C(=O)O)[C@@H](O)C(O)C3O)cc2)C(C)(C)CCC1 (stereo partly specified)
tumour outcome (control, treated, inhibition, significance) (Carcinogen: 7,12-DIMETHYLBENZ[A]ANTHRACENE, 57-97-6, Dose [Inhibitor]: 0, 1 MMOL/KG IN DIET FOR THE DURATION OF STUDY BEGINNING 1 WK PRIOR TO CARCINOGEN DOSE (STUDY DURATION: 105 WK), Route [Inhibitor]: ORAL, Species: RAT, Strain/Sex: SPRAGUE-DAWLEY/FEMALE, Target Tissue: Type of Lesion: MAMMARY GLAND: TUMOR, Dose [Carcinogen]: 15 MG IN 1 ML SESAME OIL ONCE, Promoter: NONE USED): 88%, 36%, 59%, not significant

Oc1ccc(O)cc1
tumour outcome (control, treated, inhibition, significance) (Carcinogen: BENZO[A]PYRENE, 50-32-8, Dose [Inhibitor]: 5 MG IN 0.1 ML ACETONE 3/WK ADMINISTERED SIMULTANEOUSLY WITH CARCINOGEN FOR DURATION OF STUDY (STUDY DURATION: 368 D), Route [Inhibitor]: DERMAL, Species: MOUSE, Strain/Sex: ICR/FEMALE, Target Tissue: Type of Lesion: SKIN: PAPILLOMA, Dose [Carcinogen]: 5 UG IN 0.1 ML ACETONE 3/WK FOR DURATION OF STUDY, Promoter: NONE USED): 14/50 (28%), 7/50 (14%), 50%, not calculated | tumour outcome (control, treated, inhibition, significance) (Carcinogen: BENZO[A]PYRENE, 50-32-8, Dose [Inhibitor]: 5 MG IN 0.1 ML ACETONE 3/WK ADMINISTERED SIMULTANEOUSLY WITH CARCINOGEN FOR DURATION OF STUDY (STUDY DURATION: 368 D), Route [Inhibitor]: DERMAL, Species: MOUSE, Strain/Sex: ICR/FEMALE, Target Tissue: Type of Lesion: SKIN: SQUAMOUS CARCINOMA, Dose [Carcinogen]: 5 UG IN 0.1 ML ACETONE 3/WK FOR DURATION OF STUDY, Promoter: NONE USED): 10/50 (20%), 3/50 (6%), 70%, not calculated | tumour outcome (control, treated, inhibition, significance) (Carcinogen: N-ETHYL-N-HYDROXYETHYLNITROSAMINE, 13147-25-6, Dose [Inhibitor]: 0, 0.8% IN DIET FOR 36 WK BEGINNING 1 WK POST CARCINOGEN TREATMENT (STUDY DURATION: 40 WK), Route [Inhibitor]: ORAL, Species: RAT, Strain/Sex: WISTAR/MALE, Target Tissue: Type of Lesion: LIVER: HEPATOCELLULAR ADENOMA, Dose [Carcinogen]: 0.1% IN DRINKING WATER FOR 3 WK, Promoter: NONE USED): 10/17 (59%), 11/18 (61%), -3%, not significant | tumour outcome (control, treated, inhibition, significance) (Carcinogen: N-ETHYL-N-HYDROXYETHYLNITROSAMINE, 13147-25-6, Dose [Inhibitor]: 0, 0.8% IN DIET FOR 36 WK BEGINNING 1 WK POST CARCINOGEN TREATMENT (STUDY DURATION: 40 WK), Route [Inhibitor]: ORAL, Species: RAT, Strain/Sex: WISTAR/MALE, Target Tissue: Type of Lesion: LIVER: HEPATOCELLULAR CARCINOMA, Dose [Carcinogen]: 0.1% IN DRINKING WATER FOR 3 WK, Promoter: NONE USED): 7/17 (41%), 3/18 (17%), 56%, not significant

C=C1C/C(=C/C)C(=O)O[C@@H]2CCN3CC=C(COC(=O)[C@@]1(O)CO)[C@H]23
tumour outcome (control, treated, inhibition, significance) (Dose [Inhibitor]: 0, 1 MG/KG IN 0.1 M PHOSPHATE BUFFER 5 D/WK FOR 105 WK (STUDY DURATION: 105 EK), Route [Inhibitor]: GAVAGE, Species: MOUSE, Strain/Sex: B6C3F1/MALE, Target Tissue: Type of Lesion: LIVER: HEPATOCELLULAR ADENOMA OR CARCINOMA): 36/50 (72%), 23/50 (46%), 36%, p<0.05 | tumour outcome (control, treated, inhibition, significance) (Dose [Inhibitor]: 0, 3 MG/KG IN 0.1 M PHOSPHATE BUFFER 5 D/WK FOR 105 WK (STUDY DURATION: 105 WK), Route [Inhibitor]: GAVAGE, Species: MOUSE, Strain/Sex: B6C3F1/FEMALE, Target Tissue: Type of Lesion: LIVER: HEPATOCELLULAR ADENOMA OR CARCINOMA): 16/49 (33%), 0/50 (0%), 100%, p<0.01

CCOC(=O)Oc1ccc(/C=C/C=C/C(=O)NCCN2CCC(OC(c3ccccc3)c3ccccc3)CC2)cc1OC
tumour outcome (control, treated, inhibition, significance) (Carcinogen: 7,12-DIMETHYLBENZ[A]ANTHRACENE, 57-97-6, Dose [Inhibitor]: 0, 30 MG/KG IN 5% TWEEN 80 ADMINISTERED 30 MIN PRIOR TO EACH PROMOTER DOSE 2/WK FOR 22 WK (STUDY DURATION: 25 WK), Route [Inhibitor]: ORAL, Species: MOUSE, Strain/Sex: CD-1/FEMALE, Target Tissue: Type of Lesion: SKIN: TUMOR, Dose [Carcinogen]: 200 NMOL ONCE, Promoter: 12-O-TETRADECANOYL-13-ACETATE, 16561-29-8): 100%, 55%, 45%, p<0.05 | tumour outcome (control, treated, inhibition, significance) (Carcinogen: 7,12-DIMETHYLBENZ[A]ANTHRACENE, 57-97-6, Dose [Inhibitor]: 0, 30 MG/KG IN 5% TWEEN 80 ADMINISTERED 30 MIN PRIOR TO EACH PROMOTER DOSE 2/WK FOR 22 WK (STUDY DURATION: 25 WK), Route [Inhibitor]: ORAL, Species: MOUSE, Strain/Sex: CD-1/FEMALE, Target Tissue: Type of Lesion: SKIN: TUMOR, Dose [Carcinogen]: 200 NMOL ONCE, Promoter: ANTHRALIN, 1143-38-0): 92%, 35%, 62%, p<0.05 | tumour outcome (control, treated, inhibition, significance) (Carcinogen: BENZO[A]PYRENE, 50-32-8, Dose [Inhibitor]: 0, 30 MG/KG IN 5% TWEEN 80 1/WK FOR 22 WK ADMINISTERED 30 MIN PRIOR TO EACH CARCINOGEN DOSE (STUDY DURATION: 22 WK), Route [Inhibitor]: ORAL, Species: MOUSE, Strain/Sex: CD-1/FEMALE, Target Tissue: Type of Lesion: SKIN: TUMOR, Dose [Carcinogen]: 200 NMOL 1/WK FOR 22 WK, Promoter: NONE USED): 100%, 50%, 50%, p<0.05
